Results from patent publication US11414439B2, “Modulators of cystic fibrosis transmembrane conductance regulator, pharmaceutical compositions, methods of treatment, and process for making the modulator” (Vertex Pharmaceuticals Incorporated, priority 2018, dated 2022).
Also: key: Active; ND-not detected.

Each compound was assayed on CFTR (assay: CFTR modulating activity (Table 6; one or more of the disclosed assays, e.g. enteroid membrane potential dye assay)). Conditions: generated using one or more of the assays disclosed herein.
Format: cell-based, human
Text: Human intestinal epithelial enteroid cells may be obtained from the Hubrecht Institute for Developmental Biology and Stem Cell Research, Utrecht, The Netherlands and expanded in T-Flasks as previously described (Dekkers J F, Wiegerinck C L, de Jonge H R, Bronsveld I, Janssens H M, de Winter-de Groot K M, Brandsma A M, de Jong N W M, Bijvelds M J C, Scholte B J, Nieuwenhuis E E S, van den Brink S, Clevers H, van der Ent C K, Middendorp S and M Beekman J M. A functional CFTR assay using primary cystic fibrosis intestinal organoids. Nat Med. 2013 July; 19(7):939-45).
Cells may be recovered in cell recovery solution, collected by centrifugation at 650 rpm for 5 min at 4° C., resuspended in TryPLE and incubated for 5 min at 37° C. Cells can then be collected by centrifugation at 650 rpm for 5 min at 4° C. and resuspended in IEMM containing 10 μM ROCK inhibitor (RI). The cell suspension is then passed through a 40 μm cell strainer and resuspended at 1×10^6 cells/mL in IEMM containing 10 μM RI. Cells may be seeded at 5000 cells/well into multi-well plates and incubated for overnight at 37° C., 95% humidity and 5% CO2 prior to assay.
Enteroid cells may be incubated with test compound in IEMM for 18-24 hours at 37° C., 95% humidity and 5% CO2. Following compound incubations, a membrane potential dye assay can be employed using a FLIPR Tetra to directly measure the potency and efficacy of the test compound on CFTR-mediated chloride transport following acute addition of 10 μM forskolin and 300 nM N-[2,4-bis(1,1-dimethylethyl)-5-hydroxyphenyl]-1,4-dihydro-4-oxoquinoline-3-carboxamide. Briefly, cells are washed 5 times in Bath 1 Buffer. Bath 1 Dye Solution is added and the cells are incubated for 25 min at room temperature. Following dye incubation, cells are washed 3 times in Chloride Free Dye Solution. Chloride transport is initiated by addition of Chloride Free Dye Stimulation Solution and the fluorescence signal is read for 15 min. The CFTR-mediated chloride transport for each condition may be determined from the AUC of the fluorescence response to acute forskolin and 300 nM N-[2,4-bis(1,1-dimethylethyl)-5-hydroxyphenyl]-1,4-dihydro-4-oxoquinoline-3-carboxamide stimulation.
Chloride transport may be expressed as a percentage of the chloride transport following treatment with one or more reference standards or positive controls. Suitable reference standards/controls include one or more of Compound II, Compound III, Compound IV, and Compound A. Compound A is:
Table 6 confirms CFTR modulating activity for representative compounds of the invention generated using one or more of the assays disclosed herein.
With `Cc1nn(C)cc1S(=O)(=O)NC(=O)c1ccc(-n2ccc(OCC(C)(C)C(F)(F)F)n2)nc1N1CC([Si](C)(C)C)CC1(C)C` (single isomer, unassigned) [(2-8) Enantiomer 2] the “CFTR Modulating Activity” value was “Active”. In the case of `Cc1nn(C)cc1S(=O)(=O)NC(=O)c1ccc(-n2ccc(OCC(C)(C)C(F)(F)F)n2)nc1N1C[C@@H](C)CC1(C)[Si](C)(C)C` (single isomer, unassigned) [(2-9) Stereoisomer 1], the “CFTR Modulating Activity” value is reported as “Active”. For `Cc1nn(C)cc1S(=O)(=O)NC(=O)c1ccc(-n2ccc([Si](C)(C)CCC(C)(C)C)n2)nc1N1C[C@@H](C)CC1(C)C` [Compound (2-1), 6-[3-[3,3-Dimethylbutyl(dimethyl)silyl]pyrazol-1-yl]-N-(1,3-dimethylpyrazol-4-yl)sulfonyl-2-[(4S)-2,2,4-trimethylpyrrolidin-1-yl]pyridine-3-carboxamide], the “CFTR Modulating Activity” value was “Active”. With `Cc1nn(C)cc1S(=O)(=O)NC(=O)c1ccc(-n2ccc(OCCC3([Si](C)(C)C)CC3)n2)nc1N1C[C@@H](C)CC1(C)C` [Compound (2-2), N-(1,3-dimethylpyrazol-4-yl)sulfonyl-2-[(4S)-2,2,4-trimethylpyrrolidin-1-yl]-6-[3-[2-(1-trimethylsilylcyclopropyl)ethoxy]pyrazol-1-yl]pyridine-3-carboxamide] the “CFTR Modulating Activity” value was “Active”. `Cc1nn(C)cc1S(=O)(=O)NC(=O)c1ccc(-n2ccc(OC[Si](C)(C)C)n2)nc1N1C[C@@H](C)CC1(C)C` [Compound (2-3), N-(1,3-Dimethylpyrazol-4-yl)sulfonyl-2-[(4S)-2,2,4-trimethylpyrrolidin-1-yl]-6-[3-(trimethylsilylmethoxy)pyrazol-1-yl]pyridine-3-carboxamide] was tested, and the “CFTR Modulating Activity” value was “Active”. With `Cc1nn(C)cc1S(=O)(=O)NC(=O)c1ccc(-n2ccc(OCC[Si](C)(C)C)n2)nc1N1C[C@@H](C)CC1(C)C` [Compound (2-4), N-(1,3-dimethylpyrazol-4-yl)sulfonyl-2-[(4S)-2,2,4-trimethylpyrrolidin-1-yl]-6-[3-(2-trimethylsilylethoxy)pyrazol-1-yl]pyridine-3-carboxamide] the “CFTR Modulating Activity” value was “Active”. `Cc1nn(C)cc1S(=O)(=O)NC(=O)c1ccc([Si](C)(C)C)nc1N1C[C@@H](C)CC1(C)C` [Compound (2-5), N-(1,3-dimethylpyrazol-4-yl)sulfonyl-2-[(4S)-2,2,4-trimethylpyrrolidin-1-yl]-6-trimethylsilyl-pyridine-3-carboxamide] was tested, and the “CFTR Modulating Activity” value was “Active”. `Cc1nn(C)cc1S(=O)(=O)NC(=O)c1ccc(-n2ccc(OCCC[Si](C)(C)C)n2)nc1N1C[C@@H](C)CC1(C)C` [Compound (2-6), N-(1,3-Dimethylpyrazol-4-yl)sulfonyl-2-[(4S)-2,2,4-trimethylpyrrolidin-1-yl]-6-[3-(3-trimethylsilylpropoxy)pyrazol-1-yl]pyridine-3-carboxamide] was tested, and the “CFTR Modulating Activity” value was “Active”. `Cc1nn(C)cc1S(=O)(=O)NC(=O)c1ccc(-n2ccc([Si](C)(C)CCC(F)(F)F)n2)nc1N1C[C@@H](C)CC1(C)C` [Compound (2-7), N-(1,3-Dimethylpyrazol-4-yl)sulfonyl-6-[3-[dimethyl(3,3,3-trifluoropropyl)silyl]pyrazol-1-yl]-2-[(4S)-2,2,4-trimethylpyrrolidin-1-yl]pyridine-3-carboxamide] was tested, and the “CFTR Modulating Activity” value was “Active”. In the case of `Cc1nn(C)cc1S(=O)(=O)NC(=O)c1ccc(-n2ccc([Si](C)(C)C(C)(C)C)n2)nc1N1C[C@@H](C)CC1(C)C` [Compound (2-10), 6-[3-[tert-Butyl(dimethyl)silyl]pyrazol-1-yl]-N-(1,3-dimethylpyrazol-4-yl)sulfonyl-2-[(4S)-2,2,4-trimethylpyrrolidin-1-yl]pyridine-3-carboxamide], the “CFTR Modulating Activity” value is reported as “Active”. In the case of `Cc1nn(C)cc1S(=O)(=O)NC(=O)c1ccc(-n2ccc(OC[Si](C)(C)C(C)(C)C)n2)nc1N1C[C@@H](C)CC1(C)C` [Compound (2-11), 6-[3-[[tert-Butyl(dimethyl)silyl]methoxy]pyrazol-1-yl]-N-(1,3-dimethylpyrazol-4-yl)sulfonyl-2-[(4S)-2,2,4-trimethylpyrrolidin-1-yl]pyridine-3-carboxamide], the “CFTR Modulating Activity” value is reported as “Active”. In the case of `Cc1nn(C)cc1S(=O)(=O)NC(=O)c1ccc(-n2ccc([Si](C)(C)C)n2)nc1N1C[C@@H](C)CC1(C)C` [Compound (2-12), N-(1,3-Dimethylpyrazol-4-yl)sulfonyl-2-[(4S)-2,2,4-trimethylpyrrolidin-1-yl]-6-(3-trimethylsilylpyrazol-1-yl)pyridine-3-carboxamide], the “CFTR Modulating Activity” value is reported as “Active”.
